How the values were obtained:
[1] = target: T1, hM3 muscarinic receptor subtype (Homo sapiens, UniProt P20309); assay: Radioligand binding assay ([3H]-NMS displacement), hM3
T1 construct: expressed in transfected cells
Method: A. Membrane Preparation from Cells Expressing hM1, hM2, hM3 and hM4 Muscarinic Receptor Subtypes
CHO (Chinese hamster ovary) cell lines stably expressing cloned human hM1, hM2, hM3 and hM4 muscarinic receptor subtypes, respectively, were grown to near confluency in medium consisting of HAM's F-12 supplemented with 10% FBS (Fetal Bovine Serum) and 250 μg/mL Geneticin. The cells were grown in a 5% CO2, 37° C. incubator and lifted with 2 mm EDTA in dPBS. Cells were collected by 5 minute centrifugation at 650×g, and cell pellets were either stored frozen at −80° C. or membranes were prepared immediately. For membrane preparation, cell pellets were resuspended in lysis buffer and homogenized with a Polytron PT-2100 tissue disrupter (Kinematica AG; 20 seconds×2 bursts). Crude membranes were centrifuged at 40,000×g for 15 minutes at 4° C. The membrane pellet was then resuspended with resuspension buffer and homogenized again with the Polytron tissue disrupter. The protein concentration of the membrane suspension was determined by the method described in Lowry, O. et al., 1951, […]: 193, 265. All membranes were stored frozen in aliquots at −80° C. or used immediately. Aliquots of prepared hM5 receptor membranes were purchased directly from Perkin Elmer and stored at −80° C. until use.
B. Radioligand Binding Assay on Muscarinic Receptor Subtypes hM1, hM2, hM3, hM4 and hM5
Radioligand binding assays were performed in 96-well microtiter plates in a total assay volume of 100 μL. CHO cell membranes stably expressing either the hM1, hM2, hM3, hM4 or hM5 muscarinic subtype were diluted in assay buffer to the following specific target protein concentrations (μg/well): 10 μg for hM1, 10-15 μg for hM2, 10-20 μg for hM3, 10-20 μg for hM4, and 10-12 μg for hM5. The membranes were briefly homogenized using a Polytron tissue disruptor (10 seconds) prior to assay plate addition. Saturation binding studies for determining KD values of the radioligand were performed using L-[N-methyl-3H]scopolamine methyl chloride ([^3H]-NMS) (TRK666, 84.0 Ci/mmol, Amersham Pharmacia Biotech, Buckinghamshire, England) at concentrations ranging from 0.001 nM to 20 nM. Displacement assays for determination of Ki values of test compounds were performed with [^3H]-NMS at 1 nM and eleven different test compound concentrations. The test compounds were initially dissolved to a concentration of 400 μM in dilution buffer and then serially diluted 5× with dilution buffer to final concentrations ranging from […] to […]. The addition order and volumes to the assay plates were as follows: 25 μL radioligand, 25 μL diluted test compound, and 50 μL membranes. Assay plates were incubated for 60 minutes at 37° C. Binding reactions were terminated by rapid filtration over GF/B glass fiber filter plates (PerkinElmer Inc., Wellesley, Mass.) pre-treated in 1% BSA. Filter plates were rinsed three times with wash buffer (10 mm HEPES) to remove unbound radioactivity. Plates were then air dried, and 50 μL Microscint-20 liquid scintillation fluid (PerkinElmer Inc., Wellesley, Mass.) was added to each well. The plates were then counted in a PerkinElmer Topcount liquid scintillation counter (PerkinElmer Inc., Wellesley, Mass.). Binding data were analyzed by nonlinear regression analysis with the GraphPad Prism Software package (GraphPad Software, Inc., San Diego, Calif.) using the one-site competition model. Ki values for test compounds were calculated from observed IC50 values and the KD value of the radioligand using the Cheng-Prusoff equation (Cheng Y; Prusoff W H. (1973) Biochemical Pharmacology, 22(23):3099-108). Ki values were converted to pKi values to determine the geometric mean and 95% confidence intervals. These summary statistics were then converted back to Ki values for data reporting.

hM2 receptor = target: T2, hM2 receptor (Homo sapiens, UniProt P08172); assay: Blockade of agonist-mediated [35S]GTPγS binding; type: biochemical; settings: CHO-K1 cells expressing the hM2 receptor; read-out: Ki for blockade of oxotremorine-stimulated [35S]GTPγS binding
T2 construct: expressed in transfected cells
T2 sequence (P08172 1-466): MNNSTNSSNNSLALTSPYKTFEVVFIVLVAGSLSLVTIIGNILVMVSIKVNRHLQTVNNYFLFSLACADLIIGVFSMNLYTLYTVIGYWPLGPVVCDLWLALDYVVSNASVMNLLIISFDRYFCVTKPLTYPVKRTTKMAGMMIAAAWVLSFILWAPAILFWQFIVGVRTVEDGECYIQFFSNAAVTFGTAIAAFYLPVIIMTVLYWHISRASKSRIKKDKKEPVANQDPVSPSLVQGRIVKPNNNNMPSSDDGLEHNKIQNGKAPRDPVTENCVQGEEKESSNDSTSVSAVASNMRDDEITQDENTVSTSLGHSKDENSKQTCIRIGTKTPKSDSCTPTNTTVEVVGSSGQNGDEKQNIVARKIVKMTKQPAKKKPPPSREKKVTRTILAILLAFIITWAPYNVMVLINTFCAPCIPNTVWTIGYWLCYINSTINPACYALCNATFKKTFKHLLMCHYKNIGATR
Method: B. Blockade of Agonist-Mediated GTPγ[^35S] Binding
In a second functional assay, the functional potency of a test compound is determined by measuring the ability of the compound to block oxotremorine-stimulated [^35S]GTPγS binding in CHO-K^1 cells expressing the hM2 receptor. At the time of use, frozen membranes were thawed and then diluted in assay buffer with a final target tissue concentration of 5-10 μg protein per well. The membranes were briefly homogenized using a Polytron PT-2100 tissue disrupter and then added to the assay plates.
The EC90 value (effective concentration for 90% maximal response) for stimulation of [^35S]GTPγS binding by the agonist oxotremorine was determined in each experiment.
The assay plates were then incubated at 37° C. for 60 minutes. The assay plates were filtered over 1% BSA-pretreated GF/B filters using a PerkinElmer 96-well harvester. The plates were rinsed with ice-cold wash buffer for 3×3 seconds and then air or vacuum dried. Microscint-20 scintillation liquid (50 μL) was added to each well, and each plate was sealed and radioactivity counted on a topcounter (PerkinElmer). Data were analyzed by nonlinear regression analysis with the GraphPad Prism Software package (GraphPad Software, Inc., San Diego, Calif.) using the non-linear regression, one-site competition equation. […]

T1 sequence (P20309 whole entry): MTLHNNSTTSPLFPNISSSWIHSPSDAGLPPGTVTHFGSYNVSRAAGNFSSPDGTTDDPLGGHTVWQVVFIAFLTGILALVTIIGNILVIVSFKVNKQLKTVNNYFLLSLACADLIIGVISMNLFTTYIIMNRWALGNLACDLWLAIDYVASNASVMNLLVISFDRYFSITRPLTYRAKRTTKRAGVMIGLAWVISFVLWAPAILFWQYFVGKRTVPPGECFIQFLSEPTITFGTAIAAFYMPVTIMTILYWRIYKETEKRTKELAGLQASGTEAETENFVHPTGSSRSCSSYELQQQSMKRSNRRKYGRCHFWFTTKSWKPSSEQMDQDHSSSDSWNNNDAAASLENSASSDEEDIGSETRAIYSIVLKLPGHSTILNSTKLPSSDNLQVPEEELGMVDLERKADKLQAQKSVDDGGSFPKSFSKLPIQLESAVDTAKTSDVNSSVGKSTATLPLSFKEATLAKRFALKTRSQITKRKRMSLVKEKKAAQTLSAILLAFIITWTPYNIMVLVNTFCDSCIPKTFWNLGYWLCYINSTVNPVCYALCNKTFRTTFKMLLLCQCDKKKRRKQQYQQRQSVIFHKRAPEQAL

Question: For `CNCCCCCCCCN1CC[C@@H](C(C(N)=O)(c2ccccc2)c2ccccc2)C1` [Example 1, 2-[(S)-1-(8-Methylaminooctyl)pyrrolidin-3-yl]-2,2-diphenylacetamide], which Ki ([1]; CHO cell membranes, [3H]-NMS 1 nM, read-out: hM3 binding affinity (Ki)) is on record?
Answer: Its Ki is 960 pM.

Question: What about the “Δ hM3: change in binding affinity relative to compound of the invention” value ([1]; ratio of hM3 Ki values) of the same compound?
Answer: Its value is “×2.6”.

Question: What about the Ki (hM2 receptor) of the same compound?
Answer: The Ki was < 5000 pM.

From US7638639B2, “Substituted pyrrolidine and related compounds” (Theravance, Inc., priority 2003, dated 2009)
